Measured values published in patent US20090275514A1, “USE OF CALMODULIN KINASE II INHIBITORS TO TREAT OR PREVENT HEART MUSCLE INFLAMMATION” (priority 2008, published 2009).

How the values were obtained:
[1] = test system: gene expression in infarcted hearts; experiment: cDNA microarray of infarcted hearts (CaMKII-regulated genes); assay type: in vivo, mouse; conditions: three weeks after MI; compared to infarcted AC3-C hearts; 8,600 genes on array
Procedure: (§1) Mouse hearts were infarcted by opening the thoracic cavity and placing a ligature on the left descending coronary artery, as described (3). Both male and female mice were infracted, and three-week post-infarction, RNA was isolated from cardiac tissue using RNeasy kit (Qiagen). Hearts were harvested one week after MI surgery for protein studies. Gene expression profiles of pooled RNA from at least five hearts of each gender were determined from cDNA microarrays containing 8600 elements derived from clones isolated from normalized cDNA libraries or purchased from ResGen (Invitrogen) as described previously (52). Differential expression values were calculated as the ratio of the median of background-subtracted fluorescent intensity of the experimental RNA to the median of background-subtracted fluorescent intensity of the control RNA. […] For the analyses, the results from both genders were compiled.

[2] = test system: Cfb expression in neonatal cardiomyocytes; experiment: TNFα-induced Cfb expression in cultured neonatal cardiomyocytes (qRT-PCR); assay type: cell-based, mouse; conditions: RNA after 12 h
Procedure: (§2) All animal experiments were done in compliance with the “Guiding Principles for the Care and Use of Laboratory Animals.” Mouse neonatal cardiac myocytes were isolated from 1 to 3-day-old newborn B6D2/F1 mice according to an established protocol. Hearts were dissected and incubated with F-10 nutrient medium, containing 140 μg/ml of collagenase type-2 (Sigma) and 440 μg/ml pancreatin (Sigma) until cells were dissociated. The cells were then washed, resuspended in 1:1 mix of Dulbecco's minimal Eagle's medium (DMEM) and F10 nutrient mix with 5% each of equine and bovine calf serum. These cells were pre-plated in tissue culture dishes for 1 h to allow for attachment of nonmyocytes. The resulting non-adherent myocytes were plated on fibronectin-coated (Sigma) tissue culture dishes. […]
(§3) Total RNA was isolated from mouse heart, liver, isolated adult cardiomyocytes, or cultured neonatal cardiomyocytes using Qiagen RNA isolation kit. RNA samples were quantified by determining A260 in capillary cuvettes (Gene Machine, Pharmacia). […]
(§4) For SYBR Green quantitative real-time PCR, 1 μl of reverse transcription reaction was mixed with 10 pmoles each specific primer and 12.5 μl SYBR PCR Master Mix (BioRad). […] The threshold cycle (CT) was determined by the icycler software, and quantification of relative mRNA levels was performed by ΔΔCT method.

[3] = test system: Cfb expression in neonatal cardiomyocytes; experiment: LPS-induced Cfb expression in cultured neonatal cardiomyocytes (qRT-PCR); assay type: cell-based, mouse
Procedure: as §2, §3, §4

[4] = test system: CFB protein in infarcted hearts; experiment: CFB protein in hearts after myocardial infarction (immunoblotting); assay type: in vivo, mouse; conditions: one week following MI; transgenic hearts compared to WT
Procedure: as §1
Tissue samples were homogenized in modified RIPA buffer (50 mM Hepes, pH 7.5; 150 mM NaCl; 5 mM EDTA; 1% v/v NP-40 and 0.5% w/v deoxycholate) containing mixture of protease and phosphatase inhibitors. […] Protein bands were detected using ECL reagent (Lumi-Light, Roche), and loading was routinely monitored by Coomassie staining of the blots after antibody probing. For quantification, QuantityOne software (BioRad) was used.

[5] = neonatal cardiomyocytes from transgenic mice, compared to WT cells

Molecule	number of genes with reduced expression in infarcted hearts [1]	induction of Cfb by TNFα in cardiomyocytes expressing the peptide [2, 5]	induction of Cfb mRNA by LPS in cardiomyocytes expressing the peptide [3, 5]	CFB protein in heart after MI [4]	induction of Cfb expression by TNFα ([2]; neonatal cardiomyocytes, TNFα (100 pg/ml) with water-soluble KN-93 (2.5 μM))	induction of Cfb mRNA by LPS ([3]; WT neonatal cardiomyocytes, water-soluble KN-93 (2.5 μM) added an hour prior to LPS 10 μg/ml, RNA after 12 h)
AC3-I: CaMKII-inhibitory peptide of SEQ ID NO:16, transgenically expressed in cardiomyocytes (KKALHRQEAVDCL)	88 genes	significantly lower	strong attenuation of Cfb induction	Significantly reduced CFB protein		
COc1ccc(S(=O)(=O)N(CCO)c2ccccc2CN(C)CC=Cc2ccc(Cl)cc2)cc1 [KN-93]					significantly blunted	significantly (P<0.001) attenuated induction of Cfb mRNA
